Source: US12194032B2, “Method of treating focal segmental glomerulosclerosis” (ChemoCentryx, Inc., priority 2016, dated 2025)

Legend:
Assay type in all cases: in vivo
[1] = test system: Adriamycin nephropathy female Balb/c mice; test: Adriamycin Nephropathy Model (Example 2); conditions: Adriamycin 7.5 mg/kg i.v. day 0; compound 1 90 mg/kg subcutaneously once daily; candesartan orally once daily; week 1, 2 and 3; vs vehicles
Experimental: (§1) The remnant kidney and the adryamicin drug-induced models are commonly used rodent models for FSGS (de Mik S M. Et al. Pathophysiology and treatment of focal segmental glomerulosclerosis: the role of animal models. BMC Nephrol. 2013 Apr. 1; 14:74). The 5/6 remnant kidney model is representative of secondary FSGS whereas the Adriamycin nephropathy model is representative of primary FSGS.
The experiment was performed in female Balb/c mice (Jackson Laboratories). The mice were kept on standard chow and had free access to water. 7.5 mg/kg Adriamycin (Selleck Chemicals) or saline (control) was injected in a tail vein in isoflurane-anesthetized animals at day 0. Compound 1 and its vehicle (1% HPMC) were dosed subcutaneously once daily at 90 mg/kg formulated in 1% HPMC. Candesartan and its vehicle (H2O) were dosed orally once daily. Twelve animals were used for each group.
[…] Urinary albumin was measured by ELISA (Bethyl Labs, Montgomery, TX), and the urinary albumin excretion rate (UAER) was calculated as micrograms per 24 hours. Urinary creatinine was measured by mass spectrometry. The albumin to creatinine ratio (ACR) was calculated as micrograms of albumin per milligram of creatinine.

[2] = test system: 5/6 remnant kidney 129X1/SvJ mice; test: 5/6 Remnant Kidney Model (Example 1); conditions: 5/6 nephrectomized mice
Excerpt: as §1
(§2) The 5/6 remnant kidney 129X1/SvJ mice was obtained from Jackson Laboratories. The mice were kept on standard chow and had free access to water. The mice surgery was performed in two stages. Under isoflurane anesthesia, two-thirds of the left kidney mass was dissected. After 7 to 10 days, a right unilateral nephrectomy was performed. Six weeks after the 5/6 nephrectomy, the mice were randomized for the study. Compound 3 and its vehicle were dosed subcutaneously once daily at 100 mg/kg formulated in 1% HPMC. 6 animals were used for each group.
Urine samples were collected at weeks one and two by individually housing the mice in metabolic cages for 18 hours. Urinary albumin was measured by ELISA (Bethyl Labs, Montgomery, TX), and the urinary albumin excretion rate (UAER) was calculated as micrograms per 24 hours. Urinary creatinine was measured by mass spectrometry. The albumin to creatinine ratio (ACR) was calculated as micrograms of albumin per milligram of creatinine. At the end of the experiments (after 2 weeks of treatment), the kidneys were collected, fixed in formalin, embedded in paraffin, and cut into 3-μm-thick sections. Sections were stained for podocytes by immunohistochemistry with Wilms tumor protein 1 antibody (Abcam, Cambridge, MA). Glomerular cross-sectional area and podocyte number were determined in 20-30 glomeruli per mouse. Glomerulus volume and podocyte density were calculated from the immunohistochemistry data using the Weibel method. Mesangial expansion was measured by silver methenamine stain on 2-μm-thick paraffin sections by conventional methods.

[3] = test system: 5/6 remnant kidney 129X1/SvJ mice; test: 5/6 Remnant Kidney Model with Combination Treatment (Example 3); conditions: 5/6 nephrectomized mice, compound 3 100 mg/kg subcutaneously once daily, candesartan 5 mg/kg orally once daily
Excerpt: as §1
as §2, with “After seven” for “After 7”, “to ten” for “to 10”, “performed. Three to six” for “performed. Six”, “the study (n=12 per group).” for “the study.”, “HPMC. […]” for “HPMC. 6 animals were used for each group.”
Urine samples were collected at week one, two and three by individually housing the mice in metabolic cages for 18 hours. Urinary albumin was measured by ELISA (Bethyl Labs, Montgomery, TX), and the urinary albumin excretion rate (UAER) was calculated as micrograms per 24 hours. Urinary creatinine was measured by mass spectrometry. The albumin to creatinine ratio (ACR) was calculated as micrograms of albumin per milligram of creatinine.

[4] = 100 mg/kg subcutaneously once daily, kidneys after 2 weeks of treatment

Cc1cnc(C(=O)c2ccnc3[nH]ccc23)c(NS(=O)(=O)c2ccc(Cl)c(C(F)(F)F)c2)c1 [compound 1]
UACR levels (FIG. 8) [1]: reduction in UACR levels

O=C(c1ncc(Cl)cc1NS(=O)(=O)c1ccc(Cl)c(C(F)(F)F)c1)c1ccnc2[nH]ccc12 [compound 3]
proteinuria (UACR values, FIG. 1) ([2]; 100 mg/kg subcutaneously once daily in 1% HPMC, week 1 and 2, vs vehicle): reduces the profound proteinuria
number of renal interstitial macrophages (macrophage content as percentage of total area, FIG. 2) [2, 4]: reduces the number of renal interstitial macrophages
percentage of glomeruli with mesangiolysis (FIG. 6) [2, 4]: beneficial effect
podocytes numbers per glomerular cross section (FIG. 4) [2, 4]: increased podocytes numbers
UACR values (FIG. 11) ([3]; week 1 and week 2): reduction in UACR values
UAER values (FIG. 10) ([3]; weeks 1, 2 and 3): reduction in UAER values
